Test results reported in patent US4879296A, “Xanthine derivatives” (Burroughs Wellcome co., priority 1985, dated 1989).

What was measured:
purine receptors = target: T1, purine receptors (Cavia porcellus, UniProt P47745); assay: Purine receptor antagonism in guinea pig ileum twitch test (agonist 2-chloroadenosine, Schild regression); conditions: for slope (Schild regression): value in brackets beside pA2, guinea pig ileum; for Kb: vs 2-chloroadenosine, Schild regression, may be considered the pKb, read-out: pA2 Guinea pig ileum (converted)
T1 construct: Ilea were removed from sacrificed guinea pigs and placed in organ baths; from tissue; host or cells: guinea pig ileum
T1 sequence (P47745 1-326): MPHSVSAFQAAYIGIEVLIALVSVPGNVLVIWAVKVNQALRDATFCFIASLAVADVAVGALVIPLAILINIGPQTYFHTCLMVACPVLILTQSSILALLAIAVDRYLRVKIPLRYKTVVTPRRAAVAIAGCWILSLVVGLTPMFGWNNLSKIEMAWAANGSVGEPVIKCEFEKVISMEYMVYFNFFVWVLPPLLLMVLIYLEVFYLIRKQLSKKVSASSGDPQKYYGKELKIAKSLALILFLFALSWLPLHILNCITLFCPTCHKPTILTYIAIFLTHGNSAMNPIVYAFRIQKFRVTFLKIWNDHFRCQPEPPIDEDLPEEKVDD
Method: Accordingly, a representative number of compounds of the present invention were tested for their ability to antagonise the purine receptors using the guinea pig ileum test system.
Ilea were removed from sacrificed guinea pigs and placed in organ baths containing oxygenated Krebs-Henseleit buffer. After equilibration, the ilea were stimulated to contract (twitch contraction) using an electrical field-stimulus of 0.1 Hz, 0.05 ms duration and maximal voltage. Under these conditions, the twitch contraction results from the release of acetylcholine.
Concentration response curves to the purine agonist, 2-chloroadenosine, were determined first in the absence and then in the presence of multiple concentrations of the compounds of the invention. One concentration of each compound was used per tissue. Quantification of purine receptor antagonism was accomplished using the Schild regression technique, i.e. plots of log (dose-ratio-1) vs log compound concentration, and the pA2 determined by regression of the data points to the x-intercept, where log (dose-ratio-1) is zero.

[1] = Standard LD50 test, intraperitoneal, mice; conditions: mouse, in vivo, ip
Method: The toxicity of a representative number of compounds of the present invention was determined by using the standard LD50 test.

[2] = target: T2, ADO-induced prolongation of the atrio-to-His bundle conduction time (Cavia porcellus, UniProt P47745); assay: Inhibition of ADO-induced prolongation of the atrio-to-His bundle conduction time in isolated, perfused guinea-pig heart; conditions: five animals; 5 μm ADO infusion; Eadie-Scatchard plot of %INH; read-out: mean Kd(50)
T2 construct: isolated, perfused guinea-pig heart preparations; from tissue; host or cells: isolated, perfused guinea-pig heart
T2 sequence (P47745 1-326): T1 sequence (P47745 1-326)
Method: The ability of (E)-4-(1,2,3,6-tetrahydro-1,3-dimethyl-2,6-dioxo-9H-purin-8-yl)cinnamic acid to inhibit ADO-induced prolongation of the atrio-to-His bundle conduction time and, thus, its potential for the treatment of cardiac disorders including heart block, was evaluated in isolated, perfused guinea-pig heart preparations.
Male and female guinea-pigs were sacrificed by a blow to the head, and their hearts were quickly removed. The heart was then hung on a retro-grade aortic infusion apparatus. […]
Pacing was initiated at a rate that ensured one to one capture and later was set to 2-3 Hz. […] Two antagonists were evaluated per guinea-pig. […]
A.V. conduction times were measured from the HBE and LAE. […] Differences were then calculated by subtracting the control interval in question. Percentage ADO prolongation inhibition (%INH) was calculated by subtracting the A-A difference from the ADO difference, dividing by ADO difference, and multiplying by 100, thus %INH=(ADO diff.-ant. diff.)/ADO diff.*100.
The Kd(50) was then evaluated by an Fadie-Scatchard plot, where (%INH)/(antagonist conc.) was plotted on the ordinate and %INH on the abscissa. […]

In the case of `O=C(O)/C=C/c1ccc(-c2nc3c(=O)n(Cc4ccccc4)c(=O)n(Cc4ccccc4)c3[nH]2)cc1` [Example 15, (E)-4-(1,3-dibenzyl-1,2,3,6-tetrahydro-2,6-dioxo-9H-purin-8-yl)cinnamic acid], the “slope (Schild regression)” value (purine receptors) is reported as 0.9 and the Kb (purine receptors) is reported as 79.4 nM.

For `Cn1c(=O)c2[nH]cnc2n(C)c1=O` [THEOPHYLLINE, 1,3-dimethylxanthine, reference compound], the “slope (Schild regression)” value (purine receptors) was 1.1.

With `Cn1c(=O)c2nc(-c3ccc(/C=C/C(=O)O)cc3)[nH]c2n(Cc2ccccc2)c1=O` [Example 18, (E)-4-(3-benzyl-1,2,3,6-tetrahydro-1-methyl-2,6-dioxo-9H-purin-8-yl)cinnamic acid] the “slope (Schild regression)” value (purine receptors) was 0.9, the Kb (purine receptors) was 79.4 nM and the LD50 [1] was > 100 mg/kg.

For `Cn1c(=O)c2nc(-c3ccc(/C=C/C(=O)O)cc3)[nH]c2n(C)c1=O` [Example 1, (E)-4-(1,2,3,6-tetrahydro-1,3,-dimethyl-2,6-dioxo-9H-purin-8-yl)cinnamic acid], the LD50 [1] was > 500 mg/kg and the Kd [2] was 190 nM.

For `CC(C)Cn1c(=O)n(C)c(=O)c2nc(-c3ccc(/C=C/C(=O)O)cc3)[nH]c21` [Example 12, (E)-4-(1,2,3,6-tetrahydro-3-isobutyl-1-methyl-2,6-dioxo-9H-purin-8-yl)cinnamic acid], the LD50 [1] was > 100 mg/kg.

With `CCCn1c(=O)c2nc(-c3ccc(/C=C/C(=O)O)cc3)[nH]c2n(CCC)c1=O` [Example 6, (E)-4-(1,2,3,6-tetrahydro-2,6-dioxo-1,3-dipropyl-9H-purin-8-yl)cinnamic acid] the “slope (Schild regression)” value (purine receptors) was 0.9, the Kb (purine receptors) was 20 nM and the LD50 [1] was > 500 mg/kg.

For `CCCCn1c(=O)n(C)c(=O)c2nc(-c3ccc(/C=C/C(=O)O)cc3)[nH]c21` [Example 16, (E)-4-(3-butyl-1,2,3,6-tetrahydro-1-methyl-2,6-dioxo-9H-purin-8-yl)cinnamic acid], the LD50 [1] was > 100 mg/kg.

In the case of `CC(C)Cn1c(=O)c2nc(-c3ccc(/C=C/C(=O)O)cc3)[nH]c2n(CC(C)C)c1=O` [Example 19, (E)-4-(1,2,3,6-tetrahydro-1,3-diisobutyl-2,6-dioxo-9H-purin-8-yl)cinnamic acid], the “slope (Schild regression)” value (purine receptors) is reported as 1.0 and the Kb (purine receptors) is reported as 35.5 nM.

With `CCCCn1c(=O)c2nc(-c3ccc(/C=C/C(=O)O)cc3)[nH]c2n(CCCC)c1=O` [Example 14, (E)-4-(1,3-dibutyl-1,2,3,6-tetrahydro-2,6-dioxo-9H-purin-8-yl)cinnamic acid] the “slope (Schild regression)” value (purine receptors) was 1.0, the Kb (purine receptors) was 31.6 nM and the LD50 [1] was > 100 mg/kg.

With `CCCn1c(=O)n(C)c(=O)c2nc(-c3ccc(/C=C/C(=O)O)cc3)[nH]c21` [Example 11, (E)-4-(1,2,3,6-tetrahydro-1-methyl-2,6-dioxo-3-propyl-9H-purin-8-yl)cinnamic acid] the “slope (Schild regression)” value (purine receptors) was 1.0 and the Kb (purine receptors) was 100 nM.

In the case of `CC(C)Cn1c(=O)[nH]c(=O)c2nc(-c3ccc(/C=C/C(=O)O)cc3)[nH]c21` [Example 10, (E)-4-(1,2,3,6-tetrahydro-3-isobutyl-2,6-dioxo-9H-purin-8-yl)cinnamic acid], the LD50 [1] is reported as > 100 mg/kg.
